pIC50: −log10 of the molar value. Read-outs that look alike come from different tables or passages of the source.

Assay [1] has as its target SHP-2 enzyme (Met1-Leu525) (Homo sapiens (Human), UniProt Q06124). As to the kind of experiment: SHP2 inhibition enzymatic assay. It counts as biochemical. The following applies: 0.5 nM SHP-2 activated by 500 nM IRS1 peptide, 75 μM DiFMUP substrate; read-out: SHP2wt-IC50. The procedure, abridged:
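SHP-2 (Met1-Leu525), 0.5 nM, activated with 500 nM IRS1 bis-phosphopeptide, preincubated 30 min with compounds in HEPES pH 7.2 buffer with 5 mM DTT. 75 μM DiFMUP added for 30 min at room temperature, stopped with bpV; fluorescence read. IC50 from four-parameter logistic fit of % inhibition.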

Assay [2] relates to ERK phosphorylation in KYSE-520 cells. As to the kind of experiment: Phospho-ERK cellular assay. The note with it: KYSE-520 cells, 2 h at 37° C., phospho-ERK1/2 (Thr202/Tyr204) TR-FRET, read-out: PERK IC50. Type of assay: cell-based. The method, boiled down:
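TR-FRET read-out of ERK1/2 Thr202/Tyr204 phosphorylation was taken after overnight antibody incubation at room temperature. Before that, KYSE-520 cells were treated 2 h at 37 °C with compound dilutions and lysed 30 min. Percent inhibition relative to vehicle and cell-free wells was fitted four-parametrically to give IC50.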
In general terms: Time-resolved FRET reads energy transfer from a long-lived donor to a nearby acceptor.

SHP-2 enzyme (Met1-Leu525), sequence (Q06124 1-525): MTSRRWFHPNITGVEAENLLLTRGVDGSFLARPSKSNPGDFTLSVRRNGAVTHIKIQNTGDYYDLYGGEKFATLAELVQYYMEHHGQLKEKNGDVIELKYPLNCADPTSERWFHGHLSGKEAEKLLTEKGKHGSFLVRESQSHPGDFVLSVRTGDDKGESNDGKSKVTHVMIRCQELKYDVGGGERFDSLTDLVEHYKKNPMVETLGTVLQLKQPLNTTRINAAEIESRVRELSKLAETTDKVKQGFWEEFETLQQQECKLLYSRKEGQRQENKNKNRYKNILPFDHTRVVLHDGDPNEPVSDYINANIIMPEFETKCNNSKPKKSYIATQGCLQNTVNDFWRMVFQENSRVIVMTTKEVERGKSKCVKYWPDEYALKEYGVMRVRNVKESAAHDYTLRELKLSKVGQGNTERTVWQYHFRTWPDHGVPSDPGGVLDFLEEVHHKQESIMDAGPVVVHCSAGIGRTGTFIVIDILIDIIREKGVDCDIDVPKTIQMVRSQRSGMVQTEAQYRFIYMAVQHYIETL

One may read the pIC50 as the negative decadic logarithm of the IC50, by convention in mol/L. Turning to `NCC1(c2ccsc2)C2CCN(c3cnc4c(-c5cccnc5C(F)(F)F)n[nH]c4n3)CC21` (centres unmarked) [Example 96, (7-(thiophen-3-yl)-3-(3-(2-(trifluoromethyl)pyridin-3-yl)-1H-pyrazolo[3,4-b]pyrazin-6-yl)-3-azabicyclo[4.1.0]heptan-7-yl)methanamine], the pIC50 in assay [1] was more than 6.30; in assay [2] (Homo sapiens, KYSE-520, 2 h) it was more than 6.00.

`Cc1cc(C2(CN)C3CCN(c4nc5[nH]nc(-c6ccc7nn(C)cc7c6Cl)c5c(=O)n4C)CC32)no1` (centres unmarked) [Example 62, 6-(7-(aminomethyl)-7-(5-methylisoxazol-3-yl)-3-azabicyclo[4.1.0]heptan-3-yl)-3-(4-chloro-2-methyl-2H-indazol-5-yl)-5-methyl-1,5-dihydro-4H-pyrazolo[3,4-d]pyrimidin-4-one]: the negative logarithm of the IC50 (pIC50) in assay [1] is more than 6.30; in assay [2] (Homo sapiens, KYSE-520, 2 h), 5.30 to 6.00.

On to `NC[C@]1(c2ccccc2F)[C@@H]2CCN(c3cnc4c(-c5ccc(C(=O)O)c6ccccc56)n[nH]c4n3)C[C@@H]21` [Example 257, 4-(6-((1S,6R,7R)-7-(aminomethyl)-7-(2-fluorophenyl)-3-azabicyclo[4.1.0]heptan-3-yl)-1H-pyrazolo[3,4-b]pyrazin-3-yl)-1-naphthoic acid], for which the pIC50 in assay [1] was more than 6.30; in assay [2] (Homo sapiens, KYSE-520, 2 h), less than 5.30.

In the case of `Cc1cc([C@@]2(CN)[C@@H]3CCN(c4cnc5c(-c6ccnc7cccc(F)c67)n[nH]c5n4)C[C@@H]32)no1` [Example 41, ((1S,6R,7S)-3-(3-(5-fluoroquinolin-4-yl)-1H-pyrazolo[3,4-b]pyrazin-6-yl)-7-(5-methylisoxazol-3-yl)-3-azabicyclo[4.1.0]heptan-7-yl)methanamine], the pIC50 is more than 6.30 in assay [1] and more than 6.00 in assay [2] (Homo sapiens, KYSE-520, 2 h).

Regarding `NC[C@]1(c2ccccc2F)[C@@H]2CCN(c3cnc4c(-c5ccc(CO)c6ncccc56)n[nH]c4n3)C[C@@H]21` [Example 159, (5-(6-((1S,6R,7R)-7-(aminomethyl)-7-(2-fluorophenyl)-3-azabicyclo[4.1.0]heptan-3-yl)-1H-pyrazolo[3,4-b]pyrazin-3-yl)quinolin-8-yl)methanol], the pIC50 in assay [1] was more than 6.30; in assay [2] (Homo sapiens, KYSE-520, 2 h), more than 6.00.

Turning to `NC[C@]1(c2ccccc2F)[C@@H]2CCN(c3cnc4c(-c5ccc6[nH]c(=O)ccc6c5)n[nH]c4n3)C[C@@H]21` [Example 234, 6-(6-((1S,6R,7R)-7-(aminomethyl)-7-(2-fluorophenyl)-3-azabicyclo[4.1.0]heptan-3-yl)-1H-pyrazolo[3,4-b]pyrazin-3-yl)quinolin-2(1H)-one], the pIC50 in assay [1] was more than 6.30; in assay [2] (Homo sapiens, KYSE-520, 2 h) it was more than 6.00.

Turning to `CNC(=O)c1ccc(-c2n[nH]c3nc(N4CC[C@@H]5[C@H](C4)[C@@]5(CN)c4ccccc4F)cnc23)c(Cl)c1` [Example 273, 4-(6-((1S,6R,7R)-7-(aminomethyl)-7-(2-fluorophenyl)-3-azabicyclo[4.1.0]heptan-3-yl)-1H-pyrazolo[3,4-b]pyrazin-3-yl)-3-chloro-N-methylbenzamide], the negative-log IC50 (pIC50) in assay [1] was more than 6.30; in assay [2] (Homo sapiens, KYSE-520, 2 h), more than 6.00.

Consider `Cc1csc([C@@]2(CN)[C@@H]3CN(c4cnc5c(-c6ccc7nccnc7c6Cl)n[nH]c5n4)C[C@@H]32)n1` [Example 460], for which the pIC50 in assay [1] is more than 6.30; in assay [2], more than 6.00.

For `Cc1cc(C2(CN)C3CCN(c4cnc5c(-c6ccnc7c6OC[C@@H]6CCCN76)n[nH]c5n4)CC32)no1` (stereo partly drawn) [Example 29, (7-(5-methylisoxazol-3-yl)-3-(3-((S)-6a,7,8,9-tetrahydro-6H-pyrido[3,2-b]pyrrolo[1,2-d][1,4]oxazin-4-yl)-1H-pyrazolo[3,4-b]pyrazin-6-yl)-3-azabicyclo[4.1.0]heptan-7-yl)methanamine], the negative logarithm of the IC50 (pIC50) in assay [1] was 5.52 to 6.30; in assay [2] (Homo sapiens, KYSE-520, 2 h), less than 5.30.

`Cn1cc2ccc(-c3n[nH]c4nc(N5CC[C@@H]6[C@H](C5)[C@@]6(CN)c5ccccc5F)cnc34)c(Cl)c2n1` [Example 363, ((1S,6R,7R)-3-(3-(7-chloro-2-methyl-2H-indazol-6-yl)-1H-pyrazolo[3,4-b]pyrazin-6-yl)-7-(2-fluorophenyl)-3-azabicyclo[4.1.0]heptan-7-yl)methanamine]: the pIC50 in assay [1] is more than 6.30; in assay [2] (Homo sapiens, KYSE-520, 2 h), more than 6.00.

Take `Cc1cc([C@@]2(CN)[C@@H]3CCN(c4cnc5c(-c6cc(F)cc7ncccc67)n[nH]c5n4)C[C@@H]32)no1` [Example 130, ((1S,6R,7S)-3-(3-(7-fluoroquinolin-5-yl)-1H-pyrazolo[3,4-b]pyrazin-6-yl)-7-(5-methylisoxazol-3-yl)-3-azabicyclo[4.1.0]heptan-7-yl)methanamine]: the pIC50 in assay [1] is 5.52 to 6.30; in assay [2] (Homo sapiens, KYSE-520, 2 h), more than 6.00.

In the case of `NC[C@]1(c2ccccc2F)[C@@H]2CCN(c3cnc4c(-c5ccnc(F)c5Cl)n[nH]c4n3)C[C@@H]21` [Example 509, ((1S,6R,7R)-3-(3-(3-chloro-2-fluoropyridin-4-yl)-1H-pyrazolo[3,4-b]pyrazin-6-yl)-7-(2-fluorophenyl)-3-azabicyclo[4.1.0]heptan-7-yl)methanamine], the pIC50 is more than 6.30 in assay [1] and more than 6.00 in assay [2] (Homo sapiens, KYSE-520, 2 h).

For the compound `NC[C@]1(c2ccccc2F)[C@@H]2CCN(c3cnc4c(-c5ccc6nn(C(F)F)cc6c5Cl)n[nH]c4n3)C[C@@H]21` [Example 335, ((1S,6R,7R)-3-(3-(4-chloro-2-(difluoromethyl)-2H-indazol-5-yl)-1H-pyrazolo[3,4-b]pyrazin-6-yl)-7-(2-fluorophenyl)-3-azabicyclo[4.1.0]heptan-7-yl)methanamine], the pIC50 in assay [1] is more than 6.30; in assay [2] (Homo sapiens, KYSE-520, 2 h), more than 6.00.

Take `Cc1cc([C@@]2(CN)[C@@H]3CCN(c4cnc5c(-c6ccc(C(F)(F)F)c7ncccc67)n[nH]c5n4)C[C@@H]32)no1` [Example 43, ((1S,6R,7S)-7-(5-methylisoxazol-3-yl)-3-(3-(8-(trifluoromethyl)quinolin-5-yl)-1H-pyrazolo[3,4-b]pyrazin-6-yl)-3-azabicyclo[4.1.0]heptan-7-yl)methanamine]: the negative logarithm of the IC50 (pIC50) in assay [1] is more than 6.30; in assay [2] (Homo sapiens, KYSE-520, 2 h), more than 6.00.

On to `Cc1cc(C2(CN)C3CCN(c4cnc5c(-c6ccnc7cccnc67)n[nH]c5n4)CC32)no1` (centres unmarked) [Example 35, (3-(3-(1,5-naphthyridin-4-yl)-1H-pyrazolo[3,4-b]pyrazin-6-yl)-7-(5-methylisoxazol-3-yl)-3-azabicyclo[4.1.0]heptan-7-yl)methanamine], for which the pIC50 in assay [1] was 5.52 to 6.30; in assay [2] (Homo sapiens, KYSE-520, 2 h) it was 5.30 to 6.00.

Take `CN(C)Cc1ccc(-c2n[nH]c3nc(N4CC[C@@H]5[C@H](C4)[C@@]5(CN)c4ccccc4F)cnc23)c2cccnc12` [Example 192, 1-(5-(6-((1S,6R,7R)-7-(aminomethyl)-7-(2-fluorophenyl)-3-azabicyclo[4.1.0]heptan-3-yl)-1H-pyrazolo[3,4-b]pyrazin-3-yl)quinolin-8-yl)-N,N-dimethylmethanamine]: the pIC50 is more than 6.30 in assay [1] and less than 5.30 in assay [2] (Homo sapiens, KYSE-520, 2 h).

In the case of `NC[C@]1(c2ccccc2F)[C@@H]2CCN(c3cnc4c(-c5ccc(-c6ccn[nH]6)cc5Cl)n[nH]c4n3)C[C@@H]21` [Example 296, ((1S,6R,7R)-3-(3-(2-chloro-4-(1H-pyrazol-5-yl)phenyl)-1H-pyrazolo[3,4-b]pyrazin-6-yl)-7-(2-fluorophenyl)-3-azabicyclo[4.1.0]heptan-7-yl)methanamine], the negative-log IC50 (pIC50) in assay [1] was more than 6.30; in assay [2] (Homo sapiens, KYSE-520, 2 h), more than 6.00.

Take `Cc1cc([C@@]2(CN)[C@@H]3CCN(c4cnc5c(-c6csc7ncccc67)n[nH]c5n4)C[C@@H]32)no1` [Example 113, ((1S,6R,7S)-7-(5-methylisoxazol-3-yl)-3-(3-(thieno[2,3-b]pyridin-3-yl)-1H-pyrazolo[3,4-b]pyrazin-6-yl)-3-azabicyclo[4.1.0]heptan-7-yl)methanamine]: the pIC50 in assay [1] was more than 6.30; in assay [2] (Homo sapiens, KYSE-520, 2 h), more than 6.00.

In the case of `NC[C@]1(c2ccccc2F)[C@@H]2CCN(c3cnc4c(-c5ccc6c(c5Cl)C(F)(F)C(=O)N6)n[nH]c4n3)C[C@@H]21` [Example 373, 5-(6-((1S,6R,7R)-7-(aminomethyl)-7-(2-fluorophenyl)-3-azabicyclo[4.1.0]heptan-3-yl)-1H-pyrazolo[3,4-b]pyrazin-3-yl)-4-chloro-3,3-difluoroindolin-2-one], the pIC50 in assay [1] is more than 6.30; in assay [2] (Homo sapiens, KYSE-520, 2 h), more than 6.00.

As to `CC(C)Oc1ccc(-c2n[nH]c3nc(N4CC[C@@H]5[C@H](C4)[C@@]5(CN)c4ccccc4F)cnc23)c2cccnc12` [Example 138, ((1S,6R,7R)-7-(2-fluorophenyl)-3-(3-(8-isopropoxyquinolin-5-yl)-1H-pyrazolo[3,4-b]pyrazin-6-yl)-3-azabicyclo[4.1.0]heptan-7-yl)methanamine], the pIC50 in assay [1] was more than 6.30; in assay [2] (Homo sapiens, KYSE-520, 2 h), more than 6.00.

On to `Cc1csc(C2(CN)[C@@H]3CN(c4cnc5c(-c6ccc7nn(CC#N)cc7c6Cl)n[nH]c5n4)C[C@@H]32)n1` (some centres unmarked) [Example 478], for which the negative logarithm of the IC50 (pIC50) was more than 6.30 in assay [1] and more than 6.00 in assay [2].

As to `Cc1cc([C@@]2(CN)[C@@H]3CCN(c4cnc5c(-c6ccc7nc(C)sc7c6Cl)n[nH]c5n4)C[C@@H]32)no1` [Example 107, ((1S,6R,7S)-3-(3-(7-chloro-2-methylbenzo[d]thiazol-6-yl)-1H-pyrazolo[3,4-b]pyrazin-6-yl)-7-(5-methylisoxazol-3-yl)-3-azabicyclo[4.1.0]heptan-7-yl)methanamine], the pIC50 in assay [1] is more than 6.30; in assay [2] (Homo sapiens, KYSE-520, 2 h), more than 6.00.

Source of the values: patent publication US20240109900A1, “AZABICYCLIC SHP2 INHIBITORS” (IRBM S.P.A., priority 2021, published 2024).
